Assay results from patent US9809578B2, “Pyrazolyl urea, thiourea, guanidine and cyanoguanidine compounds as trkA kinase inhibitors” (Array BioPharma Inc., priority 2012, dated 2017).

Assays:
Format in all cases: biochemical
Conditions in all cases: 10 μM, ATP near Km
Abl-P = biological target: T1, Abl-P (Homo sapiens, UniProt P00519); assay: KinaseProfiler Abl-P
T1 construct: purchased Millipore (KinaseProfiler service)
Text: (§1) The compound was run in duplicate at a concentration of ATP near the Km for each individual kinase according to Millipore's specifications.

AKT2 = biological target: T2, AKT2 (Homo sapiens, UniProt P31751); assay: KinaseProfiler AKT2
T2 construct: purchased Millipore (KinaseProfiler service)
Text: as §1

AMPK(A1/B1/G1) = biological target: T3, AMPK(A1/B1/G1) (Homo sapiens, UniProt Q13131); assay: KinaseProfiler AMPK(A1/B1/G1)
T3 construct: purchased Millipore (KinaseProfiler service)
Text: as §1

CAMK4 = biological target: T4, CAMK4 (Homo sapiens, UniProt Q16566); assay: KinaseProfiler CAMK4
T4 construct: purchased Millipore (KinaseProfiler service)
Text: as §1

CDK9/cyclinT1 = biological target: T5, CDK9/cyclinT1 (Homo sapiens, UniProt P50750); assay: KinaseProfiler CDK9/cyclinT1
T5 construct: purchased Millipore, Inc. (KinaseProfiler service)
T5 sequence (P50750 whole entry): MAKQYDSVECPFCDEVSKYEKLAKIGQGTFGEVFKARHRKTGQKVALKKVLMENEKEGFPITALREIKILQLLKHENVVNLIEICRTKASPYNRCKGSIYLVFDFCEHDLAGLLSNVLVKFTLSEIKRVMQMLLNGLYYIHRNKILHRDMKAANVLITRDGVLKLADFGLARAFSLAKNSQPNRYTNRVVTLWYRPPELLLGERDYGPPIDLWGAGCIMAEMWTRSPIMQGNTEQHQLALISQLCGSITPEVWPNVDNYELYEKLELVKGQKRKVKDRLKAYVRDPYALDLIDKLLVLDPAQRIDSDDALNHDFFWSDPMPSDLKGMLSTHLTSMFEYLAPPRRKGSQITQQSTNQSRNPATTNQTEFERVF
T5 sequence (O60563 whole entry partner): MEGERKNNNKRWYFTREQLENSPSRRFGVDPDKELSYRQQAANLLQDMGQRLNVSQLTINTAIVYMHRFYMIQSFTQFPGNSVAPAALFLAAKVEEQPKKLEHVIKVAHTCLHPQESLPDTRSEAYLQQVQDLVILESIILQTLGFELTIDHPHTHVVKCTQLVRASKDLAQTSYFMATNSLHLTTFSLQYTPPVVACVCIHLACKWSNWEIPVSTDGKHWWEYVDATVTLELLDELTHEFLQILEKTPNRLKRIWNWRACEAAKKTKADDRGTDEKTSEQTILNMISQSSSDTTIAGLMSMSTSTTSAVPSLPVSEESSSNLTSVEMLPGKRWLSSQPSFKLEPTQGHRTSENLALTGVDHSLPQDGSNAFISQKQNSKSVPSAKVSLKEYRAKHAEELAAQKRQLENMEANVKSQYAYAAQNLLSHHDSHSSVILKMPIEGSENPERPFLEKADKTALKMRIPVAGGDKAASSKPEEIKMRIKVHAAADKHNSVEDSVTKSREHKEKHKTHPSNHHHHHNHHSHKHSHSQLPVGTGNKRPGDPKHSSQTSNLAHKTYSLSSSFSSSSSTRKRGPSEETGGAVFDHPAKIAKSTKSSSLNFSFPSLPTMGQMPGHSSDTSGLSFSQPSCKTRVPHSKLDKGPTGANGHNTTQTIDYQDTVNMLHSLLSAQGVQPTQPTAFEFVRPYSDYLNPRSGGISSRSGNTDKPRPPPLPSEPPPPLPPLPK
Text: as §1

CK1gamma2 = biological target: T6, CK1gamma2 (Homo sapiens, UniProt P78368); assay: KinaseProfiler CK1gamma2
T6 construct: purchased Millipore, Inc. (KinaseProfiler service)
T6 sequence (P78368 whole entry): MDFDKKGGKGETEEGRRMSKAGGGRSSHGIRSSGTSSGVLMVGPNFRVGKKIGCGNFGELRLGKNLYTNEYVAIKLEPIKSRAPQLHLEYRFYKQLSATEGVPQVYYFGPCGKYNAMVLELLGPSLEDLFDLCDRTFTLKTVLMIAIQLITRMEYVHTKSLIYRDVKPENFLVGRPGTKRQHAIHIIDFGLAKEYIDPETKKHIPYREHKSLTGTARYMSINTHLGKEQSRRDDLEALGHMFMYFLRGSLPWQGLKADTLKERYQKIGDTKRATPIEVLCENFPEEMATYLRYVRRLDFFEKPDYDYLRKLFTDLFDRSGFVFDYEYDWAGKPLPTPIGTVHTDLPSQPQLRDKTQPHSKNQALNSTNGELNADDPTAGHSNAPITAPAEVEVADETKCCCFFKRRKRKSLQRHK
Text: as §1

CLK2 = biological target: T7, CLK2 (Homo sapiens, UniProt P49760); assay: KinaseProfiler CLK2
T7 construct: purchased Millipore, Inc. (KinaseProfiler service)
T7 sequence (P49760 whole entry): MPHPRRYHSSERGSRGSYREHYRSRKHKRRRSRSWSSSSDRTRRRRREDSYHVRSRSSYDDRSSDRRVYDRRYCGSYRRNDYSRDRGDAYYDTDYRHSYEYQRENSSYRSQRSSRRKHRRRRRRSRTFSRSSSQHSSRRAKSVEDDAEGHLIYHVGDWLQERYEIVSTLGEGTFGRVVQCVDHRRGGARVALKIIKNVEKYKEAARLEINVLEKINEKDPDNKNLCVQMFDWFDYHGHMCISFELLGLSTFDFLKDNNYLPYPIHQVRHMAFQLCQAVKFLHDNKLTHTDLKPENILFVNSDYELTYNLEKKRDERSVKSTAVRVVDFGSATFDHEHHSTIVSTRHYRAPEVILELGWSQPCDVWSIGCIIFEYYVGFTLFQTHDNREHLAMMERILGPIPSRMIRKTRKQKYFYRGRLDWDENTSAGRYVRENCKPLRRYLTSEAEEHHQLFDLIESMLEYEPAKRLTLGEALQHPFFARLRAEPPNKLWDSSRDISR
Text: as §1

CSK = biological target: T8, CSK (Homo sapiens, UniProt P41240); assay: KinaseProfiler CSK
T8 construct: purchased Millipore, Inc. (KinaseProfiler service)
Text: as §1

DRAK1 = biological target: T9, DRAK1 (Homo sapiens, UniProt Q9UEE5); assay: KinaseProfiler DRAK1
T9 construct: purchased Millipore, Inc. (KinaseProfiler service)
T9 sequence (Q9UEE5 whole entry): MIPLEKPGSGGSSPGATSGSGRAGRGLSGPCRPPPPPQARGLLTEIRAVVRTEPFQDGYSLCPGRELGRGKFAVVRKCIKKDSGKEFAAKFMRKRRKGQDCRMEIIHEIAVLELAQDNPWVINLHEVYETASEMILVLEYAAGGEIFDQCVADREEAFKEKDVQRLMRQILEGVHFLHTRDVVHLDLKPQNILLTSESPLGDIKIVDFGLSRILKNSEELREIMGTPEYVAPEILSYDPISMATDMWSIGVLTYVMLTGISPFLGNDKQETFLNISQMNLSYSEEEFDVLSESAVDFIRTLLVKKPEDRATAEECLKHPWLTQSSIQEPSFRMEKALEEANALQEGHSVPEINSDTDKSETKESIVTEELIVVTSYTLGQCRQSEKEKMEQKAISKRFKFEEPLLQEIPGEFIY
Text: as §1

eEF-2K = biological target: T10, eEF-2K (Homo sapiens, UniProt O00418); assay: KinaseProfiler eEF-2K
T10 construct: purchased Millipore, Inc. (KinaseProfiler service)
Text: as §1

EGFR = biological target: T11, EGFR (Homo sapiens, UniProt P00533); assay: KinaseProfiler EGFR
T11 construct: purchased Millipore, Inc. (KinaseProfiler service)
Text: as §1

EphA3 = biological target: T12, EphA3 (Homo sapiens, UniProt P29320); assay: KinaseProfiler EphA3
T12 construct: purchased Millipore, Inc. (KinaseProfiler service)
Text: as §1

EphB4 = biological target: T13, EphB4 (Homo sapiens, UniProt P54760); assay: KinaseProfiler EphB4
T13 construct: purchased Millipore, Inc. (KinaseProfiler service)
Text: as §1

ERK2 = biological target: T14, ERK2 (Homo sapiens, UniProt P28482); assay: KinaseProfiler ERK2
T14 construct: purchased Millipore, Inc. (KinaseProfiler service)
T14 sequence (P28482 whole entry): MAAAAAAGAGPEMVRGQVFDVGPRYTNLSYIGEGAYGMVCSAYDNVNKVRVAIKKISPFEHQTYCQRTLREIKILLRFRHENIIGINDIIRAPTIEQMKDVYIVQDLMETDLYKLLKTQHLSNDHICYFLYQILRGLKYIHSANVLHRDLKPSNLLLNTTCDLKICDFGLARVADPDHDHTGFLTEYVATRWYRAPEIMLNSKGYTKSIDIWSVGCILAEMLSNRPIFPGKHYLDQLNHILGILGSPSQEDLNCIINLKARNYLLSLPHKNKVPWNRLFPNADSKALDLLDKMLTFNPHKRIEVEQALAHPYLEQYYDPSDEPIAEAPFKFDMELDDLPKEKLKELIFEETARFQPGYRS
Text: as §1

Fes = biological target: T15, Fes (Homo sapiens, UniProt P07332); assay: KinaseProfiler Fes
T15 construct: purchased Millipore, Inc. (KinaseProfiler service)
T15 sequence (P07332 whole entry): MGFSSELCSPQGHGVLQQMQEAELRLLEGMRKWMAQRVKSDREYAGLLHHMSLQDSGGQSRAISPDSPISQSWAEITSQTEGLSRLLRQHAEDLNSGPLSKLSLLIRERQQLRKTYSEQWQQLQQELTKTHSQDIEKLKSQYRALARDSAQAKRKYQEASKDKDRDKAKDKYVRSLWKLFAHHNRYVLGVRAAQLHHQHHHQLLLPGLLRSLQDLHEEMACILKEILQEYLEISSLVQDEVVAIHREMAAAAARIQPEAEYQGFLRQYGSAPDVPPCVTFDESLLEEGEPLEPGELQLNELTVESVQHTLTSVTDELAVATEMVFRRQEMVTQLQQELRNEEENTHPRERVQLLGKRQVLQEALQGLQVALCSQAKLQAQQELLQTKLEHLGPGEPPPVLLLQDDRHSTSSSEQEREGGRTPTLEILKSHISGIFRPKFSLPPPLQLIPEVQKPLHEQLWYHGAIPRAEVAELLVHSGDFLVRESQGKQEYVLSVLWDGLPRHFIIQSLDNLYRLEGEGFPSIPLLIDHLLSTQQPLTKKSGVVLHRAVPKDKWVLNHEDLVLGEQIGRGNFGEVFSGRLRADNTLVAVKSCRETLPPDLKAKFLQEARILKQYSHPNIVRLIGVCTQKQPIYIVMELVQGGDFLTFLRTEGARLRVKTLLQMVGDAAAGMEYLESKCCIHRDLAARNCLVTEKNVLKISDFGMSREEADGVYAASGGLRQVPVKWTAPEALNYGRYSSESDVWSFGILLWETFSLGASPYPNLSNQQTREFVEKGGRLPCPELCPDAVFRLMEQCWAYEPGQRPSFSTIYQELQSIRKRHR
Text: as §1

HIPK1 = biological target: T16, HIPK1 (Homo sapiens, UniProt Q86Z02); assay: KinaseProfiler HIPK1
T16 construct: purchased Millipore, Inc. (KinaseProfiler service)
Text: as §1

IKKbeta = biological target: T17, IKKbeta (Homo sapiens, UniProt O14920); assay: KinaseProfiler IKKbeta
T17 construct: purchased Millipore, Inc. (KinaseProfiler service)
Text: as §1

IRR = biological target: T18, IRR (Homo sapiens, UniProt P14616); assay: KinaseProfiler IRR
T18 construct: purchased Millipore, Inc. (KinaseProfiler service)
Text: as §1

JAK3 = biological target: T19, JAK3 (Homo sapiens, UniProt P52333); assay: KinaseProfiler JAK3
T19 construct: purchased Millipore, Inc. (KinaseProfiler service)
Text: as §1

KDR = biological target: T20, KDR (Homo sapiens, UniProt P35968); assay: KinaseProfiler KDR
T20 construct: purchased Millipore, Inc. (KinaseProfiler service)
Text: as §1

MAPKAP-K2 = biological target: T21, MAPKAP-K2 (Homo sapiens, UniProt P49137); assay: KinaseProfiler MAPKAP-K2
T21 construct: purchased Millipore, Inc. (KinaseProfiler service)
Text: as §1

MLK1 = biological target: T22, MLK1 (Homo sapiens, UniProt P80192); assay: KinaseProfiler MLK1
T22 construct: purchased Millipore, Inc. (KinaseProfiler service)
Text: as §1

MRCKalpha = biological target: T23, MRCKalpha (Homo sapiens, UniProt Q5VT25); assay: KinaseProfiler MRCKalpha
T23 construct: purchased Millipore, Inc. (KinaseProfiler service)
Text: as §1

MSK1 = biological target: T24, MSK1 (Homo sapiens, UniProt O75582); assay: KinaseProfiler MSK1
T24 construct: purchased Millipore, Inc. (KinaseProfiler service)
T24 sequence (O75582 whole entry): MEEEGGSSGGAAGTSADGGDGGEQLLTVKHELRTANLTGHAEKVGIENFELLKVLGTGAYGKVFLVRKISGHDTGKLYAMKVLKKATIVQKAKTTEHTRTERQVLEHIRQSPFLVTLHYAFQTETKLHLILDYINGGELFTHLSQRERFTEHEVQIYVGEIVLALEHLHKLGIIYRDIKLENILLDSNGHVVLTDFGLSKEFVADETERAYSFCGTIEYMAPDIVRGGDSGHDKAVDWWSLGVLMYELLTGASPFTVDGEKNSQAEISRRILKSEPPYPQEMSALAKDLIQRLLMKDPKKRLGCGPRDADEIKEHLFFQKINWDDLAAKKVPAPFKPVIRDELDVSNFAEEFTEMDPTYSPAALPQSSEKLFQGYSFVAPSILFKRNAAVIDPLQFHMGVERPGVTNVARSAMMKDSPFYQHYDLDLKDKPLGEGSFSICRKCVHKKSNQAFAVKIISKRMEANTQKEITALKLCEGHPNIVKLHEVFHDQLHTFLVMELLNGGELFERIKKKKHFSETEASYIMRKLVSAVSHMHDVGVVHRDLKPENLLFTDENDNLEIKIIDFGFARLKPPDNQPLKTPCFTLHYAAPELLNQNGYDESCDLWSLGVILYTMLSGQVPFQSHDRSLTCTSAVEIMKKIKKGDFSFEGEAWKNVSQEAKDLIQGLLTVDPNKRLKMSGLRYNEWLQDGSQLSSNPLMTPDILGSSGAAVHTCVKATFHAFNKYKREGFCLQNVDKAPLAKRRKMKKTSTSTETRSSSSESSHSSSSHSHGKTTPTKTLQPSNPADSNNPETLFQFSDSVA
Text: as §1

NEK2 = biological target: T25, NEK2 (Homo sapiens, UniProt P51955); assay: KinaseProfiler NEK2
T25 construct: purchased Millipore, Inc. (KinaseProfiler service)
Text: as §1

p38beta = biological target: T26, p38beta (Homo sapiens, UniProt Q15759); assay: KinaseProfiler p38beta
T26 construct: purchased Millipore, Inc. (KinaseProfiler service)
Text: as §1

PKAC-alpha = biological target: T27, PKAC-alpha (Homo sapiens, UniProt P17612); assay: KinaseProfiler PKAC-alpha
T27 construct: purchased Millipore, Inc. (KinaseProfiler service)
Text: as §1

PKCgamma = biological target: T28, PKCgamma (Homo sapiens, UniProt P05129); assay: KinaseProfiler PKCgamma
T28 construct: purchased Millipore, Inc. (KinaseProfiler service)
Text: as §1

PKCiota = biological target: T29, PKCiota (Homo sapiens, UniProt P41743); assay: KinaseProfiler PKCiota
T29 construct: purchased Millipore, Inc. (KinaseProfiler service)
Text: as §1

PKD1 = biological target: T30, PKD1 (Homo sapiens, UniProt Q15139); assay: KinaseProfiler PKD1
T30 construct: purchased Millipore, Inc. (KinaseProfiler service)
Text: as §1

Plk1 = biological target: T31, Plk1 (Homo sapiens, UniProt P53350); assay: KinaseProfiler Plk1
T31 construct: purchased Millipore, Inc. (KinaseProfiler service)
T31 sequence (P53350 whole entry): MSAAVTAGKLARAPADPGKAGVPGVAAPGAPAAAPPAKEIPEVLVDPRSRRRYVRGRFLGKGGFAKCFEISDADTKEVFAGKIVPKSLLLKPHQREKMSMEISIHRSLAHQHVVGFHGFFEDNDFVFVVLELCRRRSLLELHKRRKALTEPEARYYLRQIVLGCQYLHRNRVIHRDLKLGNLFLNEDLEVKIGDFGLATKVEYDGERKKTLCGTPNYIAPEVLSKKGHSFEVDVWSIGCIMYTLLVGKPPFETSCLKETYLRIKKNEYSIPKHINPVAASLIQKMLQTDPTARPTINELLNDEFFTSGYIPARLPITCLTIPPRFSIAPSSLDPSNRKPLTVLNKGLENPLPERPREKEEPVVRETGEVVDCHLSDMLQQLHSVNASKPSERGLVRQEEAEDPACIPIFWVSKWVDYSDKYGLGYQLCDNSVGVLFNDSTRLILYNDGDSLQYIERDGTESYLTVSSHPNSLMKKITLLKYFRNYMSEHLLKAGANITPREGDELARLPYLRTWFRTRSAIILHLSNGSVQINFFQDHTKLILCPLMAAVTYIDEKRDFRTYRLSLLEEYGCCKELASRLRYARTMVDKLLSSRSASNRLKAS
Text: as §1

Plk3 = biological target: T32, Plk3 (Homo sapiens, UniProt Q9H4B4); assay: KinaseProfiler Plk3
T32 construct: purchased Millipore, Inc. (KinaseProfiler service)
Text: as §1

PRKG1alpha = biological target: T33, PRKG1alpha (Homo sapiens, UniProt Q13976); assay: KinaseProfiler PRKG1alpha
T33 construct: purchased Millipore, Inc. (KinaseProfiler service)
Text: as §1

PTK5 = biological target: T34, PTK5 (Homo sapiens, UniProt P42685); assay: KinaseProfiler PTK5
T34 construct: purchased Millipore, Inc. (KinaseProfiler service)
Text: as §1

ROCK-I = biological target: T35, ROCK-I (Homo sapiens, UniProt Q13464); assay: KinaseProfiler ROCK-I
T35 construct: purchased Millipore, Inc. (KinaseProfiler service)
Text: as §1

Rse = biological target: T36, Rse (Homo sapiens, UniProt Q06418); assay: KinaseProfiler Rse
T36 construct: purchased Millipore, Inc. (KinaseProfiler service)
Text: as §1

Rsk1 = biological target: T37, Rsk1 (Homo sapiens, UniProt Q15418); assay: KinaseProfiler Rsk1
T37 construct: purchased Millipore, Inc. (KinaseProfiler service)
Text: as §1

SGK1 = biological target: T38, SGK1 (Homo sapiens, UniProt O00141); assay: KinaseProfiler SGK1
T38 construct: purchased Millipore, Inc. (KinaseProfiler service)
Text: as §1

SIK = biological target: T39, SIK (Homo sapiens, UniProt P57059); assay: KinaseProfiler SIK
T39 construct: purchased Millipore, Inc. (KinaseProfiler service)
Text: as §1

TNK2 = biological target: T40, TNK2 (Homo sapiens, UniProt Q07912); assay: KinaseProfiler TNK2
T40 construct: purchased Millipore, Inc. (KinaseProfiler service)
Text: as §1

TrkB = biological target: T41, TrkB (Homo sapiens, UniProt Q16620); assay: KinaseProfiler TrkB
T41 construct: purchased Millipore, Inc. (KinaseProfiler service)
Text: as §1

ULK3 = biological target: T42, ULK3 (Homo sapiens, UniProt Q6PHR2); assay: KinaseProfiler ULK3
T42 construct: purchased Millipore, Inc. (KinaseProfiler service)
Text: as §1

ZAP-70 = biological target: T43, ZAP-70 (Homo sapiens, UniProt P43403); assay: KinaseProfiler ZAP-70
T43 construct: purchased Millipore, Inc. (KinaseProfiler service)
Text: as §1

Cc1c(-c2cnn(C)c2)nn(-c2ccccc2)c1NC(=O)Nc1cc(C(F)(F)F)nn1-c1ccccc1 [Example 3, 1-(1′,4-dimethyl-1-phenyl-1H,1′H-[3,4′-bipyrazol]-5-yl)-3-(1-phenyl-3-(trifluoromethyl)-1H-pyrazol-5-yl)urea]
Avg POC (Abl-P): 154.5 POC
Avg POC (AKT2): 219.5 POC
Avg POC (AMPK(A1/B1/G1)): 149.5 POC
Avg POC (CAMK4): 147.5 POC
Avg POC (CDK9/cyclinT1): 107.5 POC
Avg POC (CK1gamma2): 109 POC
Avg POC (CLK2): 135 POC
Avg POC (CSK): 137.5 POC
Avg POC (DRAK1): 129 POC
Avg POC (eEF-2K): 148.5 POC
Avg POC (EGFR): 97.5 POC
Avg POC (EphA3): 128.5 POC
Avg POC (EphB4): 116 POC
Avg POC (ERK2): 116 POC
Avg POC (Fes): 123 POC
Avg POC (HIPK1): 115.5 POC
Avg POC (IKKbeta): 123 POC
Avg POC (IRR): 99.5 POC
Avg POC (JAK3): 117.5 POC
Avg POC (KDR): 115.5 POC
Avg POC (MAPKAP-K2): 142.5 POC
Avg POC (MLK1): 100.5 POC
Avg POC (MRCKalpha): 172.5 POC
Avg POC (MSK1): 152.5 POC
Avg POC (NEK2): 125.5 POC
Avg POC (p38beta): 102 POC
Avg POC (PKAC-alpha): 136.5 POC
Avg POC (PKCgamma): 100 POC
Avg POC (PKCiota): 69.5 POC
Avg POC (PKD1): 100.5 POC
Avg POC (Plk1): 95 POC
Avg POC (Plk3): 115 POC
Avg POC (PRKG1alpha): 108 POC
Avg POC (PTK5): 102 POC
Avg POC (ROCK-I): 115 POC
Avg POC (Rse): 106.5 POC
Avg POC (Rsk1): 123 POC
Avg POC (SGK1): 276.5 POC
Avg POC (SIK): 154.5 POC
Avg POC (TNK2): 118.5 POC
Avg POC (TrkB): 95 POC
Avg POC (ULK3): 90.5 POC
Avg POC (ZAP-70): 135 POC
